From patent publication US9585871B2, “Method for treating and curing leishmaniosis using fexinidazole” (Merial Limited, priority 2013, dated 2017)

Experiments:
[1] = tested on: Leishmania donovani amastigotes grown in macrophages; settings: Wyllie S et al., 2012; cited from earlier work
[2] = Multiple dosing study in dogs: systemic exposure (plasma) to fexinidazole and its metabolites; format: in vivo, dog; settings: dog, in vivo, po, 800 mg/kg/day
Description: In an embodiment, the fexinidazole may be administered to the canine as an aqueous oral suspension, comprising 5% TWEEN 80 and 0.5% Methyl cellulose 400 cP (METHOCEL). Provided in this format, fexinidazole suspensions of 5, 20, and 80 mg fexinidazole/mL may be prepared such that 10 mL of each concentration contains 50, 200, and 800 mg fexinidazole, respectively.
Moreover, inventors expect that a wide variety of dosing regimens are now available to the skilled person to achieve the necessary and sufficient fexinidazole plasma levels. For example, and as further outlined in the Examples below, any dosing regimen that produces substantially similar fexinidazole plasma levels, as compared to those levels produced by giving the dogs about 60 mg/kg/day for about twenty-eight days, is expected to substantially or completely eliminate the Leishmania parasites. Table 1 presents the systemic fexinidazole exposure following dosing of dogs with 50, 200, and 800 mg/kg/day.

AUC0-24 [2]	Compound	activity against Leishmania donovani amastigotes grown in macrophages [1]
	Cn1c([N+](=O)[O-])cnc1COc1ccc(S(C)(=O)=O)cc1 [sulfone metabolite]	active
74.3 ± 14.4^(1) μg · hour/mL	Cn1c([N+](=O)[O-])cnc1COc1ccc([S+](C)[O-])cc1 (stereo not drawn) [sulfoxide metabolite]	active
